Experimental data taken from ChEMBL document CHEMBL1157539, “Thousands of chemical starting points for antimalarial lead identification” (Nature, 2010).

test system: Plasmodium falciparum; assay: GSK_TCMDC: Inhibition of Plasmodium falciparum 3D7 in whole erythrocytes, using parasite LDH activity as an index of growth.; type: functional, organism-based; conditions: Plasmodium falciparum, 3D7

SMILES | XC50
CCCCC(N)COc1cccc2c(-c3ccncc3)c(-c3cccc(NC(=O)Nc4ccccc4)c3)nn12 (centres undefined) | 878 nM
Oc1ccc(CCNc2nc(NCc3ccc4cc(Cl)ccc4c3)nc(N3CCNCC3)n2)cc1 | 1020 nM
CN1CCC(c2c[nH]c3ccc(NC(=O)Nc4ccc(-c5ccncc5)cc4Cl)cc23)CC1 | 836 nM
FC(F)(F)c1ccc2[nH]c(-c3ccc(-c4cccc(CNCCN5CCNCC5)c4)cc3)nc2c1 | 1030 nM
COc1ccc(NC(=O)NC2CCN(c3ccnc4ccccc34)C2)cc1 (centres undefined) | 875 nM
CC(C)c1sc(N2CCCCC2)nc1C(=O)Nc1ccc(F)cc1C(F)(F)F | 239 nM
COc1cccc(NC(=O)Nc2ccc(-c3oc(C(=O)NCC(c4ccccc4)N(C)C)cc3-c3ccncc3)cc2)c1 (centres undefined) | 1830 nM
COc1ccc2nccc(N3CCC(CCNCc4ccc5c(n4)NC(=O)CO5)CC3)c2n1 | 998 nM
CN(C)CC1CCCN1Cc1ccccc1-c1cnn(C)c(=O)c1Oc1cccc(C#N)c1 (centres undefined) | 1340 nM
CCOC(=O)c1ccc(NC(=O)N[C@@H](Cc2ccc(O)cc2)C(=O)NC2CCN(Cc3ccc4c(c3)OCO4)CC2)cc1 | 1060 nM
COCCOCCOCCn1ccc2c3c(N)nc(N)nc3ccc21 | 263 nM
CCNc1cc(C(=O)N[C@@H](Cc2ccccc2)[C@H](O)CNC2(CC)CCCCC2)cc(N2CCCCS2(=O)=O)c1 | 265 nM
Cc1cccc2nc(-c3ccc(-c4ccc(CNCCNC(=O)c5ccnn5C)cc4)s3)[nH]c12 | 308 nM
COc1cccc(OC(C)(C)c2nc(N[C@@H](C)c3ccccc3)c3cn[nH]c3n2)c1 | 968 nM
O=S(=O)(Nc1cccc(F)c1CNCc1ccccn1)c1ccc(Cl)c(Cl)c1 | 889 nM
COc1cccc2cc(C(=O)N[C@@H](CC(C)C)C(=O)N[C@H](/C=N/NC(=O)Cc3cccnc3)CCc3ccccc3)oc12 | 951 nM
O=C(Nc1cccc(-c2cccc(-c3nc4cc(C(F)(F)F)ccc4[nH]3)c2)c1)c1c[nH]cn1 | 206 nM
O=C(/C=C/c1cccc2ccccc12)NCCCCCN1CCC(c2c[nH]c3ccccc23)CC1 | 1140 nM
O=C(Nc1ccon1)c1cc(-c2cccnc2)nc2ccc(Br)cc12 | 744 nM
CCCc1cc(Cc2cnc(N)nc2N)c2cccnc2c1OC | 675 nM

SMILES | XC50
O=C(c1cccc(Br)c1)N1CCN(c2ccc([N+](=O)[O-])c(NC3CC3)c2)CC1 | 936 nM
Cc1cc(-c2nc3cncc(-c4cccc(CN5CCCC5Cc5cccnc5)c4)c3n2C)nn1C (centres undefined) | 132 nM
COc1ccc(Nc2cc(C)nc(NCc3ccc4c(c3)OCO4)n2)cc1 | 766 nM
CCN(CCCN1CCCCC1)c1cc(C)nc(Nc2cc(C(F)(F)F)ccc2C)n1 | 862 nM
CCN(CCCN1CCCCC1)c1cc(C)nc(Nc2cc(F)cc(F)c2)n1 | 570 nM
CCCC1(C)CSc2ccccc2C(c2ccccc2)N1 (centres undefined) | 707 nM
O=C(Nc1ccc(OC2CCN(Cc3ccccc3)C2)c(Cl)c1)c1ccco1 (centres undefined) | 406 nM
Cc1cc(OCCCN2CCC(NS(=O)(=O)c3cc(Br)c(Cl)s3)CC2)c2ccccc2n1 | 851 nM
O=C(/C=C/c1cccc(C(F)(F)F)c1)NCCCCCN1CCN(C(=O)Nc2ccc(Cl)c(Cl)c2)CC1 | 935 nM
Cc1c(C)n(C2CCCCC2)c2ncnc(OC3CCN(CC(=O)N4CCCC4)CC3)c12 | 1450 nM
Cc1ccnc(Nc2nc(-c3ccccn3)cs2)c1 | 998 nM
c1cncc(-c2cccc(CNc3nccc(Nc4ccc(OCCN5CCOCC5)cc4)n3)c2)c1 | 1060 nM
COc1cccc(Nc2nccc(-c3c(-c4cccc(NC(=O)c5c(F)cccc5F)c4)nn4ccccc34)n2)c1 | 178 nM
C#C[C@H]1O[C@@H](n2cnc3c(Nc4cc(Br)cc(C(F)(F)F)c4)ncnc32)[C@H](O)[C@@H]1O | 1030 nM
Fc1ccc2c(NN=Cc3ccc(Cl)cc3)ccnc2c1 | 754 nM
COC(=O)Cc1ccc(N)c2ccccc12 | 702 nM
Cc1cc(=NN=CC=Cc2ccccc2)c2ccccc2[nH]1 | 757 nM
Cc1ccc(C(=O)Nc2ccc(F)cc2)cc1-c1nc(NC2CC(C)(C)NC(C)(C)C2)nc2c1ccc(=O)n2-c1c(F)cccc1F | 684 nM
Cc1cccc(CNc2nc(C)cc(N[C@@H](CC(C)C)C(=O)NCCOc3ccccc3)n2)c1 | 1080 nM
